Experimental data as given in patent publication US20080261977A1, “Pyrimidine Derivatives as Cannabinoid Receptor Modulators” (priority 2004, published 2008).
Structures can show the parent of a compound that is named as a salt. Where two headings read alike, the source gives them in different places.

Target: T1, human cannabinoid CB2 receptor (Homo sapiens, UniProt P34972)
T1 construct: expressed in transfected cells; host or cells: Saccharomyces cerevisiae strain MMY23 (cassette integrated at the ura3 locus; chimeric Gpa1/Gαi3)
T1 sequence (P34972 whole entry): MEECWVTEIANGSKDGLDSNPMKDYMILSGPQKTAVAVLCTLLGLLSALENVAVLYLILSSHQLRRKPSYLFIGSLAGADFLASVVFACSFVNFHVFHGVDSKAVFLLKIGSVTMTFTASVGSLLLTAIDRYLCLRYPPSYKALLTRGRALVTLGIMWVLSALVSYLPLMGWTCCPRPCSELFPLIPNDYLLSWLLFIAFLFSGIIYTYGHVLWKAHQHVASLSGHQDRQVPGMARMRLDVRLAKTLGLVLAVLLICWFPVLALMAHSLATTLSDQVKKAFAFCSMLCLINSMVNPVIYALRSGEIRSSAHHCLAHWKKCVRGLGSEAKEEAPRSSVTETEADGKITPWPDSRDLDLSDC
Test: Cannabinoid CB2 receptor agonist activity, yeast (Saccharomyces cerevisiae) cells expressing the receptor, FDGlu fluorescence
Assay type: cell-based
Settings: for Emax: read-out: efficacy (Emax relative to HU210) at the cloned human cannabinoid CB2 receptor
Description: The cannabinoid CB2 receptor agonist activity of the compounds of formula (I) was determined in accordance with the following experimental method.
Yeast (Saccharomyces cerevisiae) cells expressing the human cannabinoid CB2 receptor were generated by integration of an expression cassette into the ura3 chromosomal locus of yeast strain MMY23. This cassette consisted of DNA sequence encoding the human CB2 receptor flanked by the yeast GPD promoter to the 5′ end of CB2 and a yeast transcriptional terminator sequence to the 3′ end of CB2. MMY23 expresses a yeast/mammalian chimeric G-protein alpha subunit in which the C-terminal 5 amino acids of Gpa1 are replaced with the C-terminal 5 amino acids of human Gαi3 (as described in Brown et al. (2000), Yeast 16:11-22). Cells were grown at 30° C. in liquid Synthetic Complete (SC) yeast media (Guthrie and Fink (1991), Methods in Enzymology, Vol. 194) lacking uracil, tryptophan, adenine and leucine to late logarithmic phase (approximately 6 OD600/ml).
Agonists were prepared as 10 mM stocks in DMSO. EC50 values (the concentration required to produce 50% maximal response) were estimated using dilutions of between 3- and 5-fold (BiomekFX, Beckman) into DMSO. Agonist solutions in DMSO (1% final assay volume) were transferred into black, clear bottom, microtitre plates from NUNC (96- or 384-well). Cells were suspended at a density of 0.2 OD600/ml in SC media lacking histidine, uracil, tryptophan, adenine and leucine and supplemented with 10 mM 3-aminotriazole, 0.1M sodium phosphate pH 7.0, and […] fluorescein di-β-D-glucopyranoside (FDGlu). This mixture (50 ul per well for 384-well plates, 200 ul per well for 96-well plates) was added to agonist in the assay plates (Multidrop 384, Labsystems). After incubation at 30° C. for 24 hours, fluorescence resulting from degradation of FDGlu to fluorescein due to exoglucanase, an endogenous yeast enzyme produced during agonist-stimulated cell growth, was determined using a Spectrofluor microtitre plate reader (Tecan; excitation wavelength: 485 nm; emission wavelength: 535 nm). Fluorescence was plotted against compound concentration and iteratively curve fitted using a four parameter fit to generate a concentration effect value. Efficacy (Emax) was calculated from the equation
Emax=Max[compound X]−Min[compound X]/Max[HU210]−Min[HU210]×100%
where Max[compound X] and Min[compound X] are the fitted maximum and minimum respectively from the concentration effect curve for compound X, and Max[HU210] and Min[HU210] are the fitted maximum and minimum respectively from the concentration effect curve for (6aR,10aR)-3-1,1′-Dimethylheptyl)-6a,7,10,10a-tetrahydro-1-hydroxy-6,6-dimethyl-6H-dibenzo[b,d]pyran-9-methanol (HU210; available from Tocris). Equieffective molar ratio (EMR) values were calculated from the equation
Where EC50[compound X] is the EC50 of compound X and EC50[HU210] is the EC50 of HU210.

[1] = yeast agonist assay, read-out: EC50 at the cloned human cannabinoid CB2 receptor

Emax (yeast agonist assay) [%] | Structure (SMILES) | Emax [%] | EC50 [1] [nM] | other results
– | CCC(C)NCc1cnc(Nc2cccc(Cl)c2)nc1C(F)(F)F (centres unmarked) [Example 48, [5-(sec-Butylamino-methyl)-4-trifluoromethyl-pyrimidin-2-yl]-(3-chloro-phenyl)-amine, formate] | > 50 | 300 to 1000 | –
– | FC(F)(F)c1nc(Nc2cccc(Cl)c2)ncc1CNC[C@H]1CCCO1 [Example 49, (3-Chlorophenyl)-(5-{[[(2R)-tetrahydro-furan-2-ylmethyl]-amino]-methyl}-4-trifluoromethyl-pyrimidin-2-yl)-amine,formate] | > 50 | 300 to 1000 | –
– | CN(Cc1cnc(Nc2cccc(Cl)c2)nc1C(F)(F)F)CC1CCC1 [Example 51] | > 50 | 300 to 1000 | –
– | CC(O)CNCc1cnc(Nc2cccc(Cl)c2)nc1C(F)(F)F (centres unmarked) [Example 52, 1-{[2-(3-Chlorophenylamino)-4-trifluoromethyl-pyrimidin-5-ylmethyl]-amino}-propan-2-ol] | > 50 | 300 to 1000 | –
– | FC(F)(F)c1nc(Nc2ccc(Cl)cc2Cl)ncc1CN1CCCC1 [Example 53, (2,4-Dichlorophenyl)-(5-pyrrolidin-1-ylmethyl-4-trifluoromethyl-pyrimidin-2-yl)-amine] | > 50 | 300 to 1000 | –
– | Fc1cccc(Nc2ncc(CNCC3CC3)c(C(F)(F)F)n2)c1 [Example 54, (3-Fluorophenyl)-{5-[(cyclopropylmethylamino)-methyl]-4-trifluoromethyl-pyrimidin-2-yl}-amine,formate] | > 50 | 300 to 1000 | –
– | CC(C)CCNCc1cnc(Nc2cccc(F)c2)nc1C(F)(F)F [Example 55, (3-Fluorophenyl)-{5-[(3-methylbutylamino)-methyl]-4-trifluoromethyl-pyrimidin-2-yl}-amine] | > 50 | 300 to 1000 | –
– | Fc1cccc(Nc2ncc(CN3CCOCC3)c(C(F)(F)F)n2)c1 [Example 56, (3-Fluorophenyl)-(5-morpholin-4-ylmethyl-4-trifluoromethyl-pyrimidin-2-yl)-amine] | > 50 | 300 to 1000 | –
– | N#Cc1cccc(Nc2ncc(CNC3CC3)c(C(F)(F)F)n2)c1 [Example 58, (3-Cyanophenyl)-(5-cyclopropylaminomethyl-4-trifluoromethyl-pyrimidin-2-yl)-amine,formate] | > 50 | 300 to 1000 | –
– | CC(C)CNCc1cnc(Nc2cccc(C#N)c2)nc1C(F)(F)F [Example 59, (3-Cyanophenyl)-{5-[(isobutylamino)-methyl]-4-trifluoromethyl-pyrimidin-2yl}-amine, formate] | > 50 | 300 to 1000 | –
– | COCCN(CCOC)Cc1cnc(Nc2cccc(Cl)c2)nc1C(F)(F)F [Example 83, (5-{[Bis-(2-methoxy-ethyl)-amino]-methyl}-4-trifluoromethyl-pyrimidin-2-yl)-(3-chlorophenyl)-amine] | – | – | potency or efficacy at the CB2 receptor (in words): no appreciable potency or efficacy; potency or efficacy at the CB2 receptor (in words) (listed as (5-{[Bis-(2-methoxy-ethyl)-amino]-methyl}-4-trifluoromethyl-pyrimidin-2-yl)-(3-c)): do not appear to have any potency or efficacy
– | CC(NC1CC1)c1cnc(Nc2cccc(Cl)c2)nc1C(F)(F)F (centres unmarked) [Example 85] | > 50 | – | EC50: < 300 nM
– | CC(NC1CC1)c1cnc(Nc2cccc(F)c2)nc1C(F)(F)F (centres unmarked) [Example 86, (3-Fluorophenyl)-[5-(1-cyclopropylamino-ethyl)-4-trifluoromethyl-pyrimidin-2-yl]-amine] | > 50 | – | EC50: < 300 nM
> 50 | CC(C)CNC(C)c1cnc(Nc2cccc(F)c2)nc1C(F)(F)F (centres unmarked) [Example 87, (3-Fluorophenyl)-[5-(1-isobutylamino-ethyl)-4-trifluoromethyl-pyrimidin-2-yl]-amine] | – | < 300 | –
> 50 | CC(NCC1CCOCC1)c1cnc(Nc2cccc(Cl)c2)nc1C(F)(F)F (centres unmarked) [Example 88, (3-Chlorophenyl)-(5-{1-[(tetrahydro-pyran-4-ylmethyl)-amino]-ethyl}-4-trifluoromethyl-pyrimidin-2-yl)-amine, formate] | – | < 300 | –
> 50 | CC(NCC1CCCC1)c1cnc(Nc2cccc(Cl)c2)nc1C(F)(F)F (centres unmarked) [Example 90, (3-Chlorophenyl)-{5-[1-(cyclopentylmethyl-amino)-ethyl]-4-trifluoromethyl-pyrimidin-2-yl}-amine, formate] | – | < 300 | –
> 50 | CC(C)CNC(C)c1cnc(Nc2cccc(Cl)c2)nc1C(F)(F)F (centres unmarked) [Example 92, (3-Chlorophenyl)-[5-(1-isobutylamino-ethyl)-4-trifluoromethyl-pyrimidin-2-yl]-amine, formate] | – | < 300 | –
– | CC(c1cnc(Nc2cccc(Cl)c2)nc1C(F)(F)F)N1CCOCC1 (centres unmarked) [Example 93, (3-Chlorophenyl)-[5-(1-morpholin-4-yl-ethyl)-4-trifluoromethyl-pyrimidin-2-yl]-amine] | > 50 | – | EC50: < 300 nM
> 50 | CC(NCC1CC1)c1cnc(Nc2cccc(F)c2)nc1C(F)(F)F (centres unmarked) [Example 94, (3-Fluorophenyl)-{5-[1-(cyclopropylmethyl-amino)-ethyl]-4-trifluoromethyl-pyrimidin-2-yl}-amine, formate] | – | < 300 | –
– | CC(NCC1CCCCC1)c1cnc(Nc2ccc(Cl)cc2Cl)nc1C(F)(F)F (centres unmarked) [Example 95, (2,4-Dichlorophenyl)-{5-[1-(cyclohexyhnethyl-amino)-ethyl]-4-trifluoromethyl-pyrimidin-2-yl}-amine] | > 50 | – | EC50: < 300 nM
– | Fc1cc(CNCc2cnc(Nc3cccc(Cl)c3)nc2C(F)(F)F)ccn1 [Example 96, (3-Chlorophenyl)-(5-{[(2-fluoropyridin-4-ylmethyl)amino]-methyl}-4-trifluoromethyl-pyrimidin-2yl}-amine, formate] | > 50 | 300 to 1000 | –
> 50 | CC(C)(C)c1nc(Nc2cccc(Cl)c2)ncc1CN1CCOCC1 [Example 97, (4-tert-Butyl-5-morpholin-4-ylmethyl-pyrimidin-2-yl)-(3-chloro-phenyl)-amine hydrochloride] | – | < 300 | –
> 50 | CC(C)c1nc(Nc2cccc(Cl)c2)ncc1CNC1CCC1 [Example 98, (3-Chloro-phenyl)-{5-[(cyclobutylamino)-methyl]-4-isopropyl-pyrimidin-2-yl}-amine hydrochloride] | – | < 300 | –
> 50 | CC(C)(C)c1nc(Nc2cccc(Cl)c2)ncc1CNCC1CCOCC1 [Example 99, (4-tert-Butyl-5-{[(tetrahydro-pyran-4-ylmethyl)-amino]-methyl}-pyrimidin-2-yl)-(3-chloro-phenyl)-aminehydrochloride] | – | < 300 | –
> 50 | CC(C)(C)c1nc(Nc2cccc(Cl)c2)ncc1CNCc1ccc(F)cc1 [Example 100, (4-tert-Butyl-5-[(4-fluoro-benzylamino)-methyl]-pyrimidin-2-yl}-(3-chloro-phenyl)-amine hydrochloride] | – | < 300 | –
– | COCCNCc1cnc(Nc2cccc(Cl)c2)nc1C(C)(C)C [Example 101, (4-tert-Butyl-5-[(2-methoxy-ethylamino)-methyl]-pyrimidin-2-yl}-(3-chloro-phenyl)-aminehydrochloride] | > 50 | < 300 | –
> 50 | CC(C)CNCc1cnc(Nc2cccc(Cl)c2)nc1C(C)(C)C [Example 102, (4-tert-Butyl-5-(isobutylamino-methyl)-pyrimidin-2-yl]-(3-chloro-phenyl)-aminehydrochloride] | – | < 300 | –
> 50 | CC(C)(C)c1nc(Nc2cccc(Cl)c2)ncc1CNCC1CC1 [Example 103, (4-tert-Butyl-5-[(cyclopropylmethyl-amino)-methyl]-pyrimidin-2-yl}-(3-chloro-phenyl)-aminehydrocholoride] | – | < 300 | –
